Source: the supplement of paper PMC4862054

Tests used:
[1] = system: BT-474; test: normalised viability (% of control), CellTiter-Blue; higher = more viable cells (about 100 = DMSO control); conditions: incubation time: 72 h
Method in brief: (§1)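 Each entry is normalised viability at a single listed concentration within a series. It comes from breast cancer cell lines incubated 72 h with compound in 384-well plates, then measured with CellTiter-Blue fluorescence at 560/590 nm. Every plate was normalised between vehicle (100) and a positive kill control (0).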

[2] = system: BT-549; test: as above; conditions: incubation time: 72 h
Method in brief: as §1

[3] = system: CAL-120; test: as above; conditions: incubation time: 72 h
Method in brief: as §1

[4] = system: CAL-148; test: as above; conditions: incubation time: 72 h
Method in brief: as §1

[5] = system: CAL-51; test: as above; conditions: incubation time: 72 h
Method in brief: as §1

[6] = system: CAL-85-1; test: as above; conditions: incubation time: 72 h
Method in brief: as §1

[7] = system: DU-4475; test: as above; conditions: incubation time: 72 h
Method in brief: as §1

[8] = system: HCC1143; test: as above; conditions: incubation time: 72 h
Method in brief: as §1

[9] = system: HCC1599; test: as above; conditions: incubation time: 72 h
Method in brief: as §1

[10] = system: HCC1937; test: as above; conditions: incubation time: 72 h
Method in brief: as §1

[11] = system: HDQ-P1; test: as above; conditions: incubation time: 72 h
Method in brief: as §1

[12] = system: Hs578T; test: as above; conditions: incubation time: 72 h
Method in brief: as §1

[13] = system: MDA-MB-231; test: as above; conditions: incubation time: 72 h
Method in brief: as §1

[14] = system: MDA-MB-436; test: as above; conditions: incubation time: 72 h
Method in brief: as §1

[15] = system: MDA-MB-453; test: as above; conditions: incubation time: 72 h
Method in brief: as §1

[16] = system: MDA-MB-468; test: as above; conditions: incubation time: 72 h
Method in brief: as §1

[17] = system: MFM-223; test: as above; conditions: incubation time: 72 h
Method in brief: as §1

[18] = system: SK-BR-3; test: as above; conditions: incubation time: 72 h
Method in brief: as §1

[19] = system: HDQ-P1; test: normalised viability (% of control), CellTiter-Blue; higher = more viable cells (about 100 = DMSO control); conditions: 300 nM; incubation time: 72 h
Description: (§2)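 DSRT, CellTiter-Blue viability, 72 h incubation. Signal is normalised to DMSO and benzethonium chloride controls. Value is the normalised response at dose 6.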

[20] = system: MDA-MB-453; test: as above; conditions: 300 nM; incubation time: 72 h
Description: as §2

[21] = system: HCC1937; test: drug sensitivity score (DSS), CellTiter-Blue viability (DSS (AUC-based score)); higher = stronger viability inhibition; extreme values may be limits of the assay; conditions: incubation time: 72 h
Method in brief: (§3)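 Compound was arrayed in 384-well plates as a 5- or 9-concentration series, and 20 µl of breast cancer cell suspension was seeded on top. After 72 h, each well received 2.5 µl CellTiter-Blue for 2 h at 37 °C before fluorescence reading at 560/590 nm. Per-plate normalisation used 0.1 % DMSO and a positive kill control, and the area under the fitted dose-response curve gave the drug sensitivity score.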

[22] = system: Hs578T; test: as above; conditions: incubation time: 72 h
Method in brief: as §3

[23] = system: MDA-MB-436; test: as above; conditions: incubation time: 72 h
Method in brief: as §3

C=CC(=O)Nc1cc2c(Nc3ccc(F)c(Cl)c3)ncnc2cc1OCCCN1CCOCC1 [Canertinib]
normalised viability [%]
Conditions	3 nM	10 nM	30 nM	100 nM	1000 nM	10000 nM
[1]	–	93.7	–	–	34.4	16.3
[2]	–	103	–	–	90.7	2.56
[3]	–	79.9	–	–	72.5	6.63
[4]	81.8	–	88.8	75.6	–	–
[5]	110	–	105	105	–	–
[6]	82.5	–	67	64.2	–	–
[7]	107	–	113	96.8	–	–
[8]	–	74.9	–	–	89	22.6
[9]	–	96.2	–	–	106	43.9
[10]	–	62.8	–	–	73.1	13.6
[11]	106	–	90.6	76	–	–
[12]	–	96	–	–	108	1.26
[13]	–	91.4	–	–	70.6	6.79
[14]	–	139	–	–	43.5	10.5
[15]	105	–	86.9	72.6	–	–
[16]	–	89.2	–	–	52.9	1.77
[17]	–	94.8	–	–	78.6	19.7
[18]	–	71.9	–	–	19.9	12.9

Conditions	drug sensitivity score	normalised viability [%]
[19]	–	32.4
[20]	–	48.6
[21]	7.24	–
[22]	4.83	–
[23]	11.6	–

CC1=C(/C=C/C(C)=C/C=C/C(C)=C/C(=O)O)C(C)(C)CCC1 [Tretinoin]
normalised viability [%]
Conditions	3 nM	10 nM	30 nM	100 nM	1000 nM	10000 nM
[1]	–	129	–	–	111	115
[2]	–	87.5	–	–	100	106
[3]	–	82.5	–	–	81.2	92.8
[4]	81.6	–	89.9	87.8	–	–
[5]	106	–	94.6	99.6	–	–
[6]	85.3	–	92.2	95.7	–	–
[7]	78.4	–	93.1	83.7	–	–
[8]	–	86.2	–	–	89.3	88.1
[9]	–	114	–	–	77.4	84.2
[10]	–	106	–	–	80.6	88.1
[11]	120	–	122	107	–	–
[12]	–	123	–	–	105	100
[13]	–	103	–	–	104	109
[14]	–	97.9	–	–	81.6	95.5
[15]	121	–	103	105	–	–
[16]	–	99	–	–	117	113
[17]	–	92.6	–	–	89.7	84.3
[18]	–	103	–	–	66	45

Conditions	drug sensitivity score	normalised viability [%]
[19]	–	94.9
[20]	–	91.5
[21]	0	–
[22]	0	–
[23]	0	–

O=C(Cc1ccc(-c2ccc(OCCN3CCOCC3)cc2)cn1)NCc1ccccc1 [KX2-391]
normalised viability [%]
Conditions	3 nM	10 nM	30 nM	100 nM	1000 nM	10000 nM
[1]	–	114	–	–	56	66.7
[2]	–	95.5	–	–	17.5	20.7
[3]	–	93.5	–	–	21.3	21.3
[4]	94.8	–	91.3	16.8	–	–
[5]	114	–	105	20	–	–
[6]	92.5	–	65.1	34.2	–	–
[7]	83.8	–	80.5	16.1	–	–
[8]	–	79.3	–	–	32.3	39.5
[9]	–	95.6	–	–	62.3	58.7
[10]	–	108	–	–	16.9	15.9
[11]	112	–	97.7	43.2	–	–
[12]	–	94.4	–	–	15.4	20.5
[13]	–	98.1	–	–	18.1	16.3
[14]	–	98.3	–	–	56.6	39.2
[15]	114	–	72.6	25	–	–
[16]	–	104	–	–	38.9	51.8
[17]	–	91.2	–	–	40.7	26.9
[18]	–	102	–	–	19.9	19.1

Conditions	drug sensitivity score	normalised viability [%]
[19]	–	46.6
[20]	–	28.3
[21]	24.2	–
[22]	25.9	–
[23]	14.6	–
